From US4124598A, “Psoralens” (Hoffmann-La Roche Inc., priority 1976, dated 1978)

Key:
DNA = test: Reactivity with DNA (general statement); assay type: binding, calf
Description: (§1) The covalent binding of the psoralens to DNA and RNA was studied. To achieve covalent binding, it is necessary to supply radiant energy (light) to the binding sites. These studies were carried out as follows:
(§2) The DNA and RNA used in the covalent binding studies have been described previously. Samples of each nucleic acid were prepared at a concentration of 25 ug/ml in 0.01 m Tris 0.001 M EDTA buffer. The radioactive-psoralen derivatives were added in a ratio of one psoralen for every three base pairs. The irradiation was carried out in one of the two following devices.
The low intensity irradiations were performed with a modified slide projector which was fitted with a 400 watt General Electric mercury vapor lamp (H 400 A 33-1/T16). The image of the arc was focused on the same cell, jacketed by a cobaltous nitrate solution which was also used for the high intensity irradiations. The light intensity delivered to the sample in this device was 4 to 6 mw/cm^2. The high intensity irradiations were carried out in a device containing two of the sam 400 watt General Electric mercury vapor lamps which were mounted on either side of a double walled sample chamber at a distance between centers of 4.0 cm. The chamber was cooled to 10° C. by continuous circulation of a temperature regulated solution of cobaltous nitrate (40% w/w). The cobalt solution served as an ultraviolet filter which allowed a maximum transmittance of 365 nm light and a window from approximately 340-380 nm. The intensity of the light at the surface of the inner sample chamber was approximately 100 mw/cm^2. The nucleic acid-psoralen mixture was placed in the inner chamber where it was continuously stirred throughout the irradiation. Aliquots of each solution (derivative plus nucleic acid) were taken at 20, 40 and 60 minutes. […] Finally, the optical density of the nucleic-acid psoralen mixture was taken and its radioactivity determined, thus giving the amount of derivative covalently bound to the DNA or RNA. […]

Solubility in pure water = assay type: physicochemical; conditions: pure water
Description: In order to study solubilities and dissociation constants, it is most convenient to prepare tritiated derivatives of the psoralen compounds. Thus, well-known radiation counting methods may be utilized to monitor the presence of the psoralens in solutions, or in nucleic acids.
(§3) The units of the dissociation constants are moles/liter. Solubilities and molar extinction coefficients (ε) were obtained in pure water, the equilibrium constants (KD) in 0.01 M Tris.

[1] = Molar extinction coefficient in pure water; assay type: physicochemical
Description: as §3

Calf thymus DNA = test: Equilibrium dialysis, non-covalent binding to DNA; conditions: for Kd: 0.01 M Tris, non-covalent binding; for (PS)/(S) for DNA in Saturated Solution: occupied/unoccupied binding sites
Description: (§4) In order to establish the dissociation constants from DNA and RNA, the non-covalent binding was ascertained. Non-covalent binding determines the presence of the psoralen within the nucleic acid helix. Its presence is determined in the absence of any radiant energy. As noted before, radiant energy is necessary to activate the psoralen covalent binding reaction with nucleic acid base pairs.
(§5) To determine the non-covalent binding, Calf thymus DNA (Sigma Type I) was dissolved in a 0.01 M Tris 0.001 M EDTA pH 8.5 buffer at a concentration of 25 ug/ml. A quantity of this DNA solution was placed in a dialysis bag (pretreated by boiling in NaHCO3), and the various tritiated derivatives were added inside the bag in half the cases and outside the bag in the other half. The molar ratio of psoralen molecules to base pairs was approximately 1:25. The bags were placed in vials filled with 18 ml of buffer and put on a shaker for 48-60 hours. After this period, radioactivity was determined both inside and outside the bags and the optical density of the DNA solution measured. From this information, and the specific activity of each derivative, the amount of drug non-covalently bound to the DNA was determined. Binding of the derivatives to Drosophila melanogaster ribosomal RNA was measured in exactly the same manner.
as §3

DNA (calf thymus) [2] = test: High intensity photoaddition (covalent binding) to DNA; conditions: 25 μg/ml DNA, psoralen:base pair 1:3
Description: as §1, §2
(§6) The low intensity irradiations were performed with a modified slide projector which was fitted with a 400 watt General Electric mercury vapor lamp (H 400 A 33-1/T16). The image of the arc was focused on the same cell, jacketed by a cobaltous nitrate solution which was also used for the high intensity irradiations. The light intensity delivered to the sample in this device was 4 to 6 mw/cm^2. The high intensity irradiations were carried out in a device containing two of the sam 400 watt General Electric mercury vapor lamps which were mounted on either side of a double walled sample chamber at a distance between centers of 4.0 cm. The chamber was cooled to 10° C. by continuous circulation of a temperature regulated solution of cobaltous nitrate (40% w/w). The cobalt solution served as an ultraviolet filter which allowed a maximum transmittance of 365 nm light and a window from approximately 340-380 nm. The intensity of the light at the surface of the inner sample chamber was approximately 100 mw/cm^2. The nucleic acid-psoralen mixture was placed in the inner chamber where it was continuously stirred throughout the irradiation. Aliquots of each solution (derivative plus nucleic acid) were taken at 20, 40 and 60 minutes. Each aliquot was then extracted twice with chloroform/iso-amyl alcohol (24:1) to remove unreacted psoralen followed by exhaustive dialysis against 0.01 M Tris, 0.001 M EDTA buffer. The successful extraction of unbound psoralen by the chloroform-isoamyl alcohol required the aqueous phase to be at least 0.15 M in NaCl. Finally, the optical density of the nucleic-acid psoralen mixture was taken and its radioactivity determined, thus giving the amount of derivative covalently bound to the DNA or RNA. Taking samples, at spaced time intervals also permitted an assessment of the kinetics of the covalent binding.

[3] = tested on: RNA (Drosophila melanogaster ribosomal RNA); test: High intensity photoaddition (covalent binding) to RNA; conditions: 25 μg/ml RNA, psoralen:base pair 1:3
Description: as §1, §2, §6

[4] = target: Drosophila melanogaster ribosomal RNA; test: Equilibrium dialysis, non-covalent binding to RNA; conditions: for Kd: 0.01 M Tris, non-covalent binding; for (PS)/(S) for RNA in Saturated Solution: occupied/unoccupied binding sites
Description: as §4, §5, §3

[5] = tested on: vesicular stomatitis virus; assay type: cell-based, Vesicular stomatitis virus Indiana strain
DNA (calf thymus) [6] = test: Low intensity photoaddition (covalent binding) to DNA; conditions: for A (footnote 1, shown as drawing 9) / B = percent of added psoralen covalently bound: 25 μg/ml DNA, psoralen:base pair 1:3
Description: as §1, §2
as §6, with “Aliquots of each solution (derivative plus nucleic acid) were taken at 20, 40 and 60 minutes.” left out

| Structure (SMILES) | solubility (Solubility in pure water) | solubility (Solubility in pure water; molar) | Extinction coefficient ε, 250 nm [1] | Kd (Calf thymus DNA) | (PS)/(S) for DNA in Saturated Solution (Calf thymus DNA; saturated solution) | A (footnote 1, shown as drawing 10) (DNA (calf thymus) [2]; 20 min irradiation) | B = percent of added psoralen covalently bound (DNA (calf thymus) [2]; 20 min irradiation) | A (footnote 1, shown as drawing 10) (DNA (calf thymus) [2]; 40 min irradiation) | B = percent of added psoralen covalently bound (DNA (calf thymus) [2]; 40 min irradiation) | A (footnote 1, shown as drawing 10) (DNA (calf thymus) [2]; 60 min irradiation) | B = percent of added psoralen covalently bound (DNA (calf thymus) [2]; 60 min irradiation) | A (footnote 1, shown as drawing 11) ([3]; 20 min irradiation) | B = percent of added psoralen covalently bound ([3]; 20 min irradiation) | A (footnote 1, shown as drawing 11) ([3]; 40 min irradiation) | B = percent of added psoralen covalently bound ([3]; 40 min irradiation) | A (footnote 1, shown as drawing 11) ([3]; 60 min irradiation) | B = percent of added psoralen covalently bound ([3]; 60 min irradiation) | Kd [4] | (PS)/(S) for RNA in Saturated Solution [4] | further results |
| --- | --- | --- | --- | --- | --- | --- | --- | --- | --- | --- | --- | --- | --- | --- | --- | --- | --- | --- | --- | --- |
| COCc1c(C)oc2c(C)c3oc(=O)cc(C)c3cc12 [4'-methoxymethyl-4,5',8-trimethyl psoralen] | 10 µg/mL | 37 µM | 21000 L/mol/cm | 94 µM | 0.39 | 14.1 | 21.3% | 14.3 | 21.0% | 13.8 | 21.7% | 264.2 | 1.2% | 216.8 | 1.4% | 183.4 | 1.6% | 1000 µM | 0.037 | reactivity with DNA (DNA): excellent reactivity with DNA; DNA site saturation, one psoralen per base pairs (Calf thymus DNA; saturated solution, expected from KD and solubility): one psoralen per three base pairs; (PS)/(S) for DNA in Saturated Solution (Calf thymus DNA; saturated solution, listed as 4'-methoxymethyl trioxsalen): 0.5; times more strongly binding to DNA than methoxsalen (Calf thymus DNA; vs methoxsalen): 10 times; effectiveness in inactivation of vesicular stomatitis virus vs 4,5',8-trimethyl psoralen ([5]; high dose rates, e.g., 30 μg/ml): nearly one thousand times more effective |
| Cc1cc2cc3c(C)cc(=O)oc3c(C)c2o1 [trioxsalen, 4,5',8-trimethyl psoralen, reference compound] | 0.6 µg/mL | 2.6 µM | 18000 L/mol/cm | 56 µM | 0.046 | 11.6 | 25.9% | 10.6 | 28.3% | 12.2 | 24.6% | 23.1 | 13.0% | 21.6 | 13.9% | 20.6 | 14.8% | 100 µM | 0.026 | one psoralen per n base pairs at equilibrium (best achievable) (Calf thymus DNA; saturated solution): ~20 base pairs; times stronger binding to DNA than 4'-hydroxymethyl trioxsalen (Calf thymus DNA; vs 4'-hydroxymethyl trioxsalen (trioxsalen binding)): 5 times; times stronger binding to DNA than 4'-methoxymethyl trioxsalen (Calf thymus DNA; vs 4'-methoxymethyl trioxsalen): 2 times; rate of reaction with DNA / initial rate of photochemical binding (DNA (calf thymus) [6]): greater initial rate of photochemical binding than 4'-hydroxymethyl trioxsalen; A (footnote 1, shown as drawing 9) (DNA (calf thymus) [6]; 5 min irradiation): 19.7; B = percent of added psoralen covalently bound (DNA (calf thymus) [6]; 5 min irradiation): 15.5%; A (footnote 1, shown as drawing 9) (DNA (calf thymus) [6]; 10 min irradiation): 15.5; B = percent of added psoralen covalently bound (DNA (calf thymus) [6]; 10 min irradiation): 19.7%; A (footnote 1, shown as drawing 9) (DNA (calf thymus) [6]; 30 min irradiation): 13.7; B = percent of added psoralen covalently bound (DNA (calf thymus) [6]; 30 min irradiation): 22.1%; A (footnote 1, shown as drawing 9) (DNA (calf thymus) [6]; 60 min irradiation): 12.8; B = percent of added psoralen covalently bound (DNA (calf thymus) [6]; 60 min irradiation): 23.6%; A (footnote 1, shown as drawing 9) (DNA (calf thymus) [6]; 90 min irradiation): 10.6; B = percent of added psoralen covalently bound (DNA (calf thymus) [6]; 90 min irradiation): 28.5%; moles of psoralen bound per mole of base pairs (DNA (calf thymus) [6]; 90 minutes irradiation): 0.09 moles per mole of base pairs; effect of increasing concentration on ability to inactivate the virus ([5]; FIG. 1, from 10 μg/ml to 30 μg/ml): no effect on its ability to inactivate the virus |
